Measurements reported in patent US20250290117A1, “MOLECULAR PHENOTYPIC ANTIMICROBIAL SUSCEPTIBILITY TESTING” (priority 2024, published 2025).

Experiments:
Type in all cases: cell-based
[1] = tested on: pathogens of clinical samples; test: Molecular phenotypic antimicrobial susceptibility test of clinical samples, direct PCR without a separate DNA purification step (Table 6)
Method: (§1) Detection of Molecular Phenotypic Antimicrobial Susceptibility. Disclosed herein are the methods for the detection of phenotypic antimicrobial susceptibility via molecular methods. The present invention describes how a specimen 100 with a known microbial load is incubated and then exposed to a panel of antimicrobial agents to determine sensitivity (prevention of growth) or resistance (allowance of growth) to the specific antimicrobial agents tested utilizing molecular methods.
(§2) Sample Collection. Specimens 100 are collected from patients using sterile collection processes that are employed in routine clinical care. Specimens are transported to the testing facility in boric acid preservative.
(§3) Preparation of the Specimens for Testing. […] The process for pathogen isolation includes steps of harvesting the pathogen (e.g., via centrifugation), isolating pathogen DNA via a DNA isolation and/or purification kit, and performing PCR on the pathogen DNA via PCR components (e.g., primers, enzymes, buffers) as would be known to the skilled artisan. […] This aliquot is used for antimicrobial susceptibility testing if indicated based on the pathogen detection results. […] Specimens 100 with lower pathogen loads could also be utilized in the antibiotic susceptibility phase of testing with or without a longer incubation period.
(§4) Preparation of Antimicrobial Susceptibility Testing Plates. Antimicrobial solutions are prepared at known concentrations. The specific antimicrobials and their concentrations are selected based on the pathogen of interest and the described antimicrobial resistance breakpoints for that specimen pathogen and antimicrobial combination. These antimicrobials have been selected based on those commonly utilized by healthcare providers in routine clinical care for the specific type of suspected infection. The number and types of antimicrobials utilized can be customized based on the infection source, pathogen detected, patient-specific factors such as allergies or other health conditions (e.g., chronic kidney disease or concurrent medication use), or healthcare provider preferences such as antimicrobial availability or cost.
(§5) The antimicrobial solutions are prepared in liquid culture media (such as Muller Hinton Broth) to achieve the desired antimicrobial concentration and are then stored at −80° C. until use. For a given specimen, each antimicrobial is tested at a single or multiple antimicrobial concentration(s) which is its established breakpoints for sensitivity. The antimicrobial solutions are prepared and plated out for each specific pathogen. […] This allows for evaluation of pathogen load when no antimicrobial is present.
(§6) Specimen Exposure to Antimicrobial Agents. The 1 mL aliquot of the specimen 100 previously mixed with culture media and incubated is obtained. Using optical density measurements as a guide, the specimen 100 is diluted to 0.5 McFarland.
(§7) Antimicrobial exposure plates are typically placed into an incubator for 12-16 hours.
(§8) Nucleic Acid Amplification of Antimicrobial Agent Exposed Pathogens. The antimicrobial exposure plate is removed after the period of incubation. The specimen then undergoes a purification or lysis step. For example, the specimen may undergo a purification step (e.g., magnetic bead-based or other separation protocol to isolate genetic material). In another example, the specimen may undergo a cell lysis step. For example, buffer (e.g., lysis buffer) may be added and incubated in the thermal cycler for preparation for direct PCR. Next, the specimen may undergo a polymerase chain reaction (PCR) testing protocol, whereby a semi-quantitative PCR method is utilized. This may be completed either with or without a specific extraction protocol step. The pathogens can be individually targeted and detected, or a universal genetic sequence can be utilized to detect the antimicrobial susceptibility of the specimen as a whole.

Escherichia coli = test: Molecular phenotypic antimicrobial susceptibility test (extraction or DNA purification prior to PCR)
Method: as §1, §2, §3, §4, §5, §6, §7, §8

[2] = tested on: pathogens of clinical samples; test: Molecular phenotypic antimicrobial susceptibility test of clinical samples, extraction DNA purification step prior to PCR (Table 6)
Method: as §1, §2, §3, §4, §5, §6, §7, §8

[3] = E. coli, clinical sample of r10-r24
[4] = E. coli, clinical sample of r158-r172
[5] = E. faecalis, clinical sample of r93-r99
[6] = E. faecalis, clinical sample of r114-r120
[7] = E. faecalis, clinical sample of r151-r157
[8] = K. aerogenes, clinical sample of r136-r150
[9] = K. pneumoniae, clinical sample of r121-r135
[10] = M. morganii, clinical sample of r55-r69
[11] = M. morganii, clinical sample of r70-r84
[12] = P. mirabilis, clinical sample of r25-r39
[13] = P. mirabilis, clinical sample of r40-r54
[14] = S. aureus, clinical sample of r85-r92

O=C1CN(/N=C/c2ccc([N+](=O)[O-])o2)C(=O)N1 [Nitrofurantoin]
Molecular Antibiotic Susceptibility Result [1, 3]: Sensitive (Antimicrobial wells with pathogen load detected below the control wells (typically >2 cycle thresholds later) may be reported as Sensitive) | Ct ([1]; E. coli, clinical sample of r10-r24, Ct control avg 12.97): 24.883 | Molecular Antibiotic Susceptibility Result [1, 4]: Sensitive (Antimicrobial wells with pathogen load detected below the control wells (typically >2 cycle thresholds later) may be reported as Sensitive) | Ct ([1]; E. coli, clinical sample of r158-r172, Ct control avg 12.894): 27.377 | Molecular Antibiotic Susceptibility Result [1, 5]: Sensitive (Antimicrobial wells with pathogen load detected below the control wells (typically >2 cycle thresholds later) may be reported as Sensitive) | Ct ([1]; E. faecalis, clinical sample of r93-r99, Ct control avg 22.011): 36.826 | Ct ([1]; E. faecalis, clinical sample of r100-r106, Ct control avg 21.027): 33.684 | Ct ([1]; E. faecalis, clinical sample of r107-r113, Ct control avg 20.529): 32.294 | Molecular Antibiotic Susceptibility Result [1, 6]: Sensitive (Antimicrobial wells with pathogen load detected below the control wells (typically >2 cycle thresholds later) may be reported as Sensitive) | Ct ([1]; E. faecalis, clinical sample of r114-r120, Ct control avg 20.909): 32.771 | Molecular Antibiotic Susceptibility Result [1, 7]: Sensitive (Antimicrobial wells with pathogen load detected below the control wells (typically >2 cycle thresholds later) may be reported as Sensitive) | Ct ([1]; E. faecalis, clinical sample of r151-r157, Ct control avg 18.551): 37.634 | Molecular Antibiotic Susceptibility Result [1, 8]: Sensitive (Antimicrobial wells with pathogen load detected below the control wells (typically >2 cycle thresholds later) may be reported as Sensitive) | Ct ([1]; K. aerogenes, clinical sample of r136-r150, Ct control avg 13.854): 29.821 | Molecular Antibiotic Susceptibility Result [1, 9]: Sensitive (Antimicrobial wells with pathogen load detected below the control wells (typically >2 cycle thresholds later) may be reported as Sensitive) | Ct ([1]; K. pneumoniae, clinical sample of r121-r135, Ct control avg […]): 28.708 | Molecular Antibiotic Susceptibility Result [1, 10]: Sensitive (Antimicrobial wells with pathogen load detected below the control wells (typically >2 cycle thresholds later) may be reported as Sensitive) | Ct ([1]; M. morganii, clinical sample of r55-r69, Ct control avg 12.09): 28.588 | Molecular Antibiotic Susceptibility Result [1, 11]: Sensitive (Antimicrobial wells with pathogen load detected below the control wells (typically >2 cycle thresholds later) may be reported as Sensitive) | Ct ([1]; M. morganii, clinical sample of r70-r84, Ct control avg 11.677): 29.959 | Molecular Antibiotic Susceptibility Result [1, 12]: Resistant | Ct ([1]; P. mirabilis, clinical sample of r25-r39, Ct control avg 11.801): 12.013 | Molecular Antibiotic Susceptibility Result [1, 13]: Resistant | Ct ([1]; P. mirabilis, clinical sample of r40-r54, Ct control avg 10.06): 10.329 | Molecular Antibiotic Susceptibility Result [1, 14]: Sensitive (Antimicrobial wells with pathogen load detected below the control wells (typically >2 cycle thresholds later) may be reported as Sensitive) | Ct ([1]; S. aureus, clinical sample of r85-r92, Ct control avg 20.309): 32.477 | Ct at Sensitive Breakpoint (Escherichia coli; E. coli isolate 1, Ct at control (average) 21.238): 35.690 | Molecular Antimicrobial Susceptibility Result (Escherichia coli; E. coli isolate 1, at sensitive breakpoint): Sensitive (Antimicrobial wells with pathogen load detected below the control wells (typically >2 cycle thresholds later) may be reported as Sensitive) | Ct at Sensitive Breakpoint (Escherichia coli; E. coli isolate 2, Ct at control (average) 21.270): 30.495 | Molecular Antimicrobial Susceptibility Result (Escherichia coli; E. coli isolate 2, at sensitive breakpoint): Sensitive (Antimicrobial wells with pathogen load detected below the control wells (typically >2 cycle thresholds later) may be reported as Sensitive) | Ct at Sensitive Breakpoint (Escherichia coli; E. coli isolate 3, Ct at control (average) 22.0995): 21.722 | Molecular Antimicrobial Susceptibility Result (Escherichia coli; E. coli isolate 3, at sensitive breakpoint): Sensitive (Antimicrobial wells with pathogen load detected below the control wells (typically >2 cycle thresholds later) may be reported as Sensitive) | Ct at Sensitive Breakpoint (Escherichia coli; E. coli isolate 4, Ct at control (average) 17.5733): 32.06 | Molecular Antimicrobial Susceptibility Result (Escherichia coli; E. coli isolate 4, at sensitive breakpoint): Sensitive (Antimicrobial wells with pathogen load detected below the control wells (typically >2 cycle thresholds later) may be reported as Sensitive) | Ct at Sensitive Breakpoint (Escherichia coli; E. coli isolate 5, Ct at control (average) 21.0933): 33.53 | Molecular Antimicrobial Susceptibility Result (Escherichia coli; E. coli isolate 5, at sensitive breakpoint): Sensitive (Antimicrobial wells with pathogen load detected below the control wells (typically >2 cycle thresholds later) may be reported as Sensitive) | Molecular Antibiotic Susceptibility Result [2, 3]: Sensitive (Antimicrobial wells with pathogen load detected below the control wells (typically >2 cycle thresholds later) may be reported as Sensitive) | Ct ([2]; E. coli, clinical sample of r10-r24, Ct Control Avg 18.112): 29.981 | Molecular Antibiotic Susceptibility Result [2, 4]: Sensitive (Antimicrobial wells with pathogen load detected below the control wells (typically >2 cycle thresholds later) may be reported as Sensitive) | Ct ([2]; E. coli, clinical sample of r158-r172, Ct Control Avg 20.146): 34.794 | Molecular Antibiotic Susceptibility Result [2, 5]: Sensitive (Antimicrobial wells with pathogen load detected below the control wells (typically >2 cycle thresholds later) may be reported as Sensitive) | Ct ([2]; E. faecalis, clinical sample of r93-r99, Ct Control Avg 22.987): 38.744 | Ct ([2]; E. faecalis, clinical sample of r100-r106, Ct Control Avg 23.073): 37.449 | Ct ([2]; E. faecalis, clinical sample of r107-r113, Ct Control Avg 22.144): 32.584 | Molecular Antibiotic Susceptibility Result [2, 6]: Sensitive (Antimicrobial wells with pathogen load detected below the control wells (typically >2 cycle thresholds later) may be reported as Sensitive) | Ct ([2]; E. faecalis, clinical sample of r114-r120, Ct Control Avg 20.822): 34.318 | Molecular Antibiotic Susceptibility Result [2, 7]: Sensitive (Antimicrobial wells with pathogen load detected below the control wells (typically >2 cycle thresholds later) may be reported as Sensitive) | Molecular Antibiotic Susceptibility Result [2, 8]: Sensitive (Antimicrobial wells with pathogen load detected below the control wells (typically >2 cycle thresholds later) may be reported as Sensitive) | Ct ([2]; K. aerogenes, clinical sample of r136-r150, Ct Control Avg 19.994): 38.755 | Molecular Antibiotic Susceptibility Result [2, 9]: Sensitive (Antimicrobial wells with pathogen load detected below the control wells (typically >2 cycle thresholds later) may be reported as Sensitive) | Ct ([2]; K. pneumoniae, clinical sample of r121-r135, Ct Control Avg 24.272): 33.13 | Molecular Antibiotic Susceptibility Result [2, 10]: Sensitive (Antimicrobial wells with pathogen load detected below the control wells (typically >2 cycle thresholds later) may be reported as Sensitive) | Molecular Antibiotic Susceptibility Result [2, 11]: Sensitive (Antimicrobial wells with pathogen load detected below the control wells (typically >2 cycle thresholds later) may be reported as Sensitive) | Molecular Antibiotic Susceptibility Result [2, 12]: Resistant | Ct ([2]; P. mirabilis, clinical sample of r25-r39, Ct Control Avg 26.064): 22.903 | Molecular Antibiotic Susceptibility Result [2, 13]: Resistant | Ct ([2]; P. mirabilis, clinical sample of r40-r54, Ct Control Avg 26.987): 23.887 | Molecular Antibiotic Susceptibility Result [2, 14]: Sensitive (Antimicrobial wells with pathogen load detected below the control wells (typically >2 cycle thresholds later) may be reported as Sensitive) | Ct ([2]; S. aureus, clinical sample of r85-r92, Ct Control Avg 24.32): 30.822
